Assay [1] concerns the target T1, Alpha-1D adrenergic receptor (Homo sapiens, UniProt P25100). Also: in other assays of this panel Not Active means under 50% inhibition at 10 µM.
T1 sequence (P25100 whole entry): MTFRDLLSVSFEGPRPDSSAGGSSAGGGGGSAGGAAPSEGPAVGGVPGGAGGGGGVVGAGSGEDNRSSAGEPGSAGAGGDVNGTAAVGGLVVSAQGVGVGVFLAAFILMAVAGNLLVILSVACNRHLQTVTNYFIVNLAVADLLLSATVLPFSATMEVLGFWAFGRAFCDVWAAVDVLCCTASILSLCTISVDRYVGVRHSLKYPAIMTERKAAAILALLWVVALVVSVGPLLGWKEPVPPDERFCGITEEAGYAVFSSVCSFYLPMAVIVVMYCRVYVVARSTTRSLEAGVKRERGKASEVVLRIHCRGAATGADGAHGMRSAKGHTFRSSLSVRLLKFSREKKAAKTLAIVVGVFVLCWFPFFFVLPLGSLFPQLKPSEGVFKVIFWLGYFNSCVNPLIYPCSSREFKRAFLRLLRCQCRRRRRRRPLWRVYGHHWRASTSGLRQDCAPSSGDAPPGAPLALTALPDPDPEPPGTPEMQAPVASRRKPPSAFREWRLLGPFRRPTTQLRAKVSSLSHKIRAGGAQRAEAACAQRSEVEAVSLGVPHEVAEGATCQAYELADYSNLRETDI
In kind it is cell membranes, HEK293, Membrane. As to conditions: for Ki: read-out: Ki.

The target of assay [2] is T2, Cholecystokinin receptor type A (Homo sapiens, UniProt P32238). Also: in other assays of this panel Not Active means under 50% inhibition at 10 µM.
T2 sequence (P32238 whole entry): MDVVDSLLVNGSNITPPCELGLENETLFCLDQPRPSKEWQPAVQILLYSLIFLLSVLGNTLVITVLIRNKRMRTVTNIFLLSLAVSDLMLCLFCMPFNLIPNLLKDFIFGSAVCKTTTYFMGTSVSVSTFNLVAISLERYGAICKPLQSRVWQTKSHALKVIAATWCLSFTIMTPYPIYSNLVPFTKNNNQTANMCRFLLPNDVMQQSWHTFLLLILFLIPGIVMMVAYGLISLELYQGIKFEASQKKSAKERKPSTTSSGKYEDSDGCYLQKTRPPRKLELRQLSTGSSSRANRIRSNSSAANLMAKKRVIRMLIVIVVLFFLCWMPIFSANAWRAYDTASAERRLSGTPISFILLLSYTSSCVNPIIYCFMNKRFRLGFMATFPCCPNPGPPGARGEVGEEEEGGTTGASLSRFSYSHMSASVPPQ
In kind it is cell membranes, Membrane. As to conditions: 1321-n1.

For assay [3], the target named is Prostaglandin G/H synthase 1 (Homo sapiens, UniProt P23219). The assay is described as follows: biochemical. In kind it is tissue-based, Platelet. As to conditions: platelet.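 Also: inhibition of COX-1 enzyme activity, with arachidonic acid supplied as substrate; in other assays of this panel Not Active means under 50% inhibition at 10 µM.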
The target in assay [4] is T3, Neuropeptide Y receptor type 1 (Homo sapiens, UniProt P25929). Also: in other assays of this panel Not Active means under 50% inhibition at 10 µM.
T3 sequence (P25929 whole entry): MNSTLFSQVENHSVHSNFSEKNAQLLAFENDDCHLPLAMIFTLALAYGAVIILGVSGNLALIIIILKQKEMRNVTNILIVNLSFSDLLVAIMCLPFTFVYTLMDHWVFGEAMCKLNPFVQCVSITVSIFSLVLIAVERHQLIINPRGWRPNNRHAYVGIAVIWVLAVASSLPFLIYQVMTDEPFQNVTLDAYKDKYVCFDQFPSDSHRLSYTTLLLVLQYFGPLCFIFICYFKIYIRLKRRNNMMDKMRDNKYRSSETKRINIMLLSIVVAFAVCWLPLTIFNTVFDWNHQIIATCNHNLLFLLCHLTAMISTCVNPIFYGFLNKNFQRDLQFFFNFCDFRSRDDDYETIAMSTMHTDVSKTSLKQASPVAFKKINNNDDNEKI
In kind it is cell membranes, Membrane. As to conditions: sk-n-mc.

In assay [5] the target is T4, 5-hydroxytryptamine receptor 1A (Rattus norvegicus, UniProt P19327). Also: in other assays of this panel Not Active means under 50% inhibition at 10 µM.
T4 sequence (P19327 whole entry): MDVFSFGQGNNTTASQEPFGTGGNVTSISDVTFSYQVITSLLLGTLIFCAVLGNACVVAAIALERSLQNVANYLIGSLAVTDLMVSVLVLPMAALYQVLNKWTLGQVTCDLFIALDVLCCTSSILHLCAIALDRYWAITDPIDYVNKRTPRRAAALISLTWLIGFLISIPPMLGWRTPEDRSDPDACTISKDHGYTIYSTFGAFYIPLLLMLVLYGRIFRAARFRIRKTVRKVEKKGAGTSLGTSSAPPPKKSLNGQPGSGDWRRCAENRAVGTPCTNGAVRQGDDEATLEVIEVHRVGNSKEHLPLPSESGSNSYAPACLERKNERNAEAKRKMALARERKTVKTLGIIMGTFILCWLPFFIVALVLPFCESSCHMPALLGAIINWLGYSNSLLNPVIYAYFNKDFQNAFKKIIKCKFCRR
In kind it is cell membranes, CHO-K1, Membrane.

A further assay deals with Adenosine receptor A2a (Homo sapiens, UniProt P29274). The assay is described as follows: DRUGMATRIX: Adenosine A2A radioligand binding (ligand: […]). In kind it is cell membranes, HEK293, Membrane. As to conditions: hek293; Not Active = under 50% inhibition at 10 µM.

The record followed here is ChEMBL document CHEMBL1909046, “DrugMatrix in vitro pharmacology data”.

SMILES strings stand for the structures.

Chain of Prostaglandin G/H synthase 1 (P23219 whole entry): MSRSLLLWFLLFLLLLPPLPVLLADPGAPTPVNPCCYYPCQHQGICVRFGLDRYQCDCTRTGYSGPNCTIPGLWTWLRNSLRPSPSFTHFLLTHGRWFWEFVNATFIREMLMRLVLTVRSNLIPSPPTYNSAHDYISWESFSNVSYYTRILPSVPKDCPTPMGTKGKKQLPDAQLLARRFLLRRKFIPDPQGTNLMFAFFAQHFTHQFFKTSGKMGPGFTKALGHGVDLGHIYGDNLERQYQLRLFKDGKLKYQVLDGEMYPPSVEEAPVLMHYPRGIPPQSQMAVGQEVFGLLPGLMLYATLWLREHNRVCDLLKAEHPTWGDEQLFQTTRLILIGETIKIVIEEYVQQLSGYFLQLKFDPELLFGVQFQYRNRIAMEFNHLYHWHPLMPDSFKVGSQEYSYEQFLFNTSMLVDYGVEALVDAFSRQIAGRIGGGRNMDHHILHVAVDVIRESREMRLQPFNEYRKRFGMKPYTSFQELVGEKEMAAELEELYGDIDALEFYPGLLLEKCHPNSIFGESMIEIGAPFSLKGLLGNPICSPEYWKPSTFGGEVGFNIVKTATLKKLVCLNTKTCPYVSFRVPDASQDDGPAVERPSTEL
Chain of Adenosine receptor A2a (P29274 whole entry): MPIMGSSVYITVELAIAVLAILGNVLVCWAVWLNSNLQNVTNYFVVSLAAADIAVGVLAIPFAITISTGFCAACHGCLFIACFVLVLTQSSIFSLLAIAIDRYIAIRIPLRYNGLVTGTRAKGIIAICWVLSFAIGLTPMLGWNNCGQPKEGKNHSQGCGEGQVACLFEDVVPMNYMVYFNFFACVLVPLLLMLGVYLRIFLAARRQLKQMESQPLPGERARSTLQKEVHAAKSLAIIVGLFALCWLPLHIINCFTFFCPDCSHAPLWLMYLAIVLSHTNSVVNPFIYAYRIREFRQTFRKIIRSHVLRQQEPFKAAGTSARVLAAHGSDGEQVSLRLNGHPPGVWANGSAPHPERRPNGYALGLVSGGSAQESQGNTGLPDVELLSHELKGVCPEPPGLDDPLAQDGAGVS

For orientation: IC50 means the point on the concentration scale where inhibition reaches its midpoint. In the case of `CCCCC(=O)N(Cc1ccc(-c2ccccc2-c2nnn[nH]2)cc1)[C@H](C(=O)O)C(C)C`, the IC50 result (in assay [1] (hek293); in assay [2]; in assay [3]; in assay [4]; in assay [5] (cho-k1); on Adenosine receptor A2a) was “Not Active” each time.

For the compound `O=C(O)COc1ccc(C(=O)c2cccs2)c(Cl)c1Cl`, the IC50 result (in assay [1] (hek293); in assay [2]; in assay [3]; in assay [4]; in assay [5] (cho-k1); on Adenosine receptor A2a) was “Not Active” in each case.

A word on the Ki: it is a dissociation constant, usually derived from enzyme kinetics or from competition with a known ligand. Consider `CN1[C@@H]2CC[C@H]1C[C@@H](OC(c1ccccc1)c1ccccc1)C2` [BENZTROPINE], for which the IC50 is 52 nM in assay [1] (read-out: IC50); “Not Active” in assay [2]; “Not Active” in assay [3]; “Not Active” in assay [4]; “Not Active” in assay [5] (cho-k1); “Not Active” on Adenosine receptor A2a. In addition, the Ki in assay [1] came to 26 nM.

For `C[C@@](Cc1ccc(O)c(O)c1)(NN)C(=O)O.O` [CARBIDOPA], the IC50 result (in assay [1] (hek293); in assay [2]; in assay [3]; in assay [4]; in assay [5] (cho-k1); at Adenosine receptor A2a) was “Not Active” throughout.

Regarding `CN1CCN(C2=Nc3cc(Cl)ccc3Nc3ccccc32)CC1` [CLOZAPINE], the IC50 result (in assay [2]; in assay [3]; in assay [4]; on Adenosine receptor A2a) was “Not Active” each time.

As for `CC(C)NC[C@@H](O)COc1cccc2ccccc12` [DEXPROPRANOLOL], the concentration for half-maximal inhibition (IC50) entry (in assay [1] (hek293); in assay [2]; in assay [3]; in assay [4]; on Adenosine receptor A2a) was “Not Active” each time.

With `CC(C)NC[C@H](O)COc1cccc2ccccc12` [LEVOPROPRANOLOL], the IC50 result (in assay [1] (hek293); in assay [2]; in assay [3]; in assay [4]; on Adenosine receptor A2a) was “Not Active” throughout.

Regarding `O=C(O)CCCCC1CCSS1` (stereo not drawn) [LIPOIC ACID, ALPHA], the IC50 result (in assay [1] (hek293); in assay [2]; in assay [3]; in assay [4]; in assay [5] (cho-k1); at Adenosine receptor A2a) was “Not Active” in each case.

Turning to `CN(C)C(=O)C(CCN1CCC(O)(c2ccc(Cl)cc2)CC1)(c1ccccc1)c1ccccc1` [LOPERAMIDE], the half-maximal inhibitory concentration (IC50) entry (in assay [1] (hek293); in assay [2]; in assay [3]; in assay [4]; in assay [5] (cho-k1); on Adenosine receptor A2a) was “Not Active” each time.

For the compound `Clc1ccc(COC(Cn2ccnc2)c2ccc(Cl)cc2Cl)c(Cl)c1` (stereo unspecified) [MICONAZOLE], the IC50 was 3050 nM in assay [1] (read-out: IC50); “Not Active” in assay [2]; “Not Active” in assay [3]; “Not Active” in assay [4]; 11.5 µM in assay [5] (read-out: IC50). Also, the results for the Ki in assay [1] and in assay [5] (read-out: Ki) were 1500 nM and 6.56 µM, respectively.

As to `Oc1ccc2c3c1O[C@H]1[C@@H](O)CC[C@@]4(O)[C@@H](C2)N(CC2CCC2)CC[C@]314` [NALBUPHINE], the IC50 result (in assay [1] (hek293); in assay [2]; in assay [3]; in assay [4]; in assay [5] (cho-k1); at Adenosine receptor A2a) was “Not Active” throughout.

On to `C[C@]12C=CC(=O)C=C1CC[C@@H]1[C@@H]2C(=O)C[C@@]2(C)[C@H]1CC[C@]2(O)C(=O)CO` [PREDNISONE], for which the IC50 result (in assay [1] (hek293); in assay [2]; in assay [3]; in assay [4]; in assay [5] (cho-k1); at Adenosine receptor A2a) was “Not Active” each time.

Consider `OCCOCCN1CCN(C2=Nc3ccccc3Sc3ccccc32)CC1` [QUETIAPINE], for which the IC50 is 96.6 nM in assay [1] (read-out: IC50); “Not Active” in assay [2]; “Not Active” in assay [3]; “Not Active” in assay [4]; “Not Active” on Adenosine receptor A2a. Besides, the Ki in assay [1] was determined as 47.5 nM.
